In ChEMBL document CHEMBL5137058, “Therapeutic Strategies to Target the Androgen Receptor” (J Med Chem, 2022):

Tests used:
LNCaP [1] = assay: Antitumor activity against human LNCaP cells xenografted in mouse assessed as decrease in PSA level at 25 mg/kg, sc; type: functional; design: scale not given: the % may be the effect or the level left
Androgen receptor [2] = target: T1, Androgen receptor (Homo sapiens, UniProt P10275); assay: Antagonist activity at Androgen receptor in human LNCaP cells assessed as inhibition of Binding Function 3 (BF3) of AR measured by luciferase assay; type: cell-based
T1 sequence (P10275 whole entry): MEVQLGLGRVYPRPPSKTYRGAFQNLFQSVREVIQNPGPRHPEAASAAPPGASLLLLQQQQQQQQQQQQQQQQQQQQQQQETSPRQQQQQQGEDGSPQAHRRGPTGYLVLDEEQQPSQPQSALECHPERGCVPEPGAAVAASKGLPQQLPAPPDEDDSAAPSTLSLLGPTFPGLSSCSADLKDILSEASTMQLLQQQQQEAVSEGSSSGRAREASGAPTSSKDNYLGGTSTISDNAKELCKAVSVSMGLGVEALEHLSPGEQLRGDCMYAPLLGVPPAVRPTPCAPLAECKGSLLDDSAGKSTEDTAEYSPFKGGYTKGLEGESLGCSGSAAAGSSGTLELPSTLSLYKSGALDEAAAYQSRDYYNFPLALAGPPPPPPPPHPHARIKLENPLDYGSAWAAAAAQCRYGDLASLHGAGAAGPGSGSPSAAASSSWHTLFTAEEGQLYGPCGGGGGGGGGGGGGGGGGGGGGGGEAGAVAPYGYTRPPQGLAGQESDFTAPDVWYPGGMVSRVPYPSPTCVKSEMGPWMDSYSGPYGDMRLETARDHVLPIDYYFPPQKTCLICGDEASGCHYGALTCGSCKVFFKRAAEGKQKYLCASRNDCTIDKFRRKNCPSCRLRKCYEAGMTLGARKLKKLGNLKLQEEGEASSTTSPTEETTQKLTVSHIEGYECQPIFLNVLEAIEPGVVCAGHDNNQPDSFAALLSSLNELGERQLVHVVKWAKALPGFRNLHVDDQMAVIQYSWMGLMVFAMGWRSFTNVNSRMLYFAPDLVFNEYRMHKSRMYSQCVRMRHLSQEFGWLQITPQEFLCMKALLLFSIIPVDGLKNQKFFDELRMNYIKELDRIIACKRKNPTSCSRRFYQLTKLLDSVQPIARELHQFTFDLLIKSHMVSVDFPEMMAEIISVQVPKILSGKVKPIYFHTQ

Androgen receptor [3] = target: T1, Androgen receptor; assay: Binding affinity to Androgen receptor (unknown origin); settings: read-out: IC50
Androgen receptor [4] = target: T1, Androgen receptor; assay: Agonist activity at Androgen receptor (unknown origin) measured by androgen response element luciferase assay
Androgen receptor [5] = target: T1, Androgen receptor
LNCaP [6] = assay: Antiproliferative activity against human LNCaP cells expressing wild-type Androgen receptor; type: functional, cell-based
Androgen receptor [7] = target: T1, Androgen receptor; assay: Binding affinity to wild-type Androgen receptor (unknown origin)
Androgen receptor [8] = target: T2, Androgen receptor (Homo sapiens, UniProt P10275, T878A); assay: Binding affinity to bicalutamide-resistant Androgen receptor T878A mutant (unknown origin)
LNCaP [9] = assay: Antiproliferative activity against human LNCaP cells expressing Androgen receptor T878A mutant; type: functional, cell-based
Androgen receptor [10] = target: T1, Androgen receptor; assay: Antagonist activity at wild-type Androgen receptor (unknown origin) expressed in African green monkey COS-7 cells measured as gene transcription level; type: cell-based
Androgen receptor [11] = target: T2, Androgen receptor; assay: Binding affinity to bicalutamide-resistant Androgen receptor T877A mutant (unknown origin)
Androgen receptor [12] = target: T2, Androgen receptor; assay: Antagonist activity at Androgen receptor T877A mutant (unknown origin) expressed in African green monkey COS-7 cells measured as gene transcription level; type: cell-based
[13] = Antitumor activity against bicalutamide-resistant human LNCaP-cxD2 cells xenografted in mouse at 25 mg/kg, po administered for 28 days; type: functional; settings: time 28 day
[14] = In vivo agonist activity at Androgen receptor in castrated rat assessed as increase in levator ani muscle weight at 0.11 mg administered orally per day for 14 days; type: functional; settings: route po, time 14 day
[15] = In vivo agonist activity at Androgen receptor in castrated male rat assessed as increase in prostate weight at 0.76 mg administered orally per day; type: functional; settings: route po
Rattus norvegicus = assay: Antagonist activity in mature male Sprague-Dawley rat assessed as decrease in seminal vesicle and prostate weight at 15 mg/kg, po administered once a day for 14 days; type: functional; design: scale not given: the % may be the effect or the level left; settings: time 14 day
Androgen receptor [16] = target: T1, Androgen receptor; assay: Displacement of [3H]DHT from Androgen receptor expressed in human MDA-MB-453 cells; type: cell-based
Androgen receptor [17] = target: T1, Androgen receptor; assay: Antagonist activity at Androgen receptor in human MDA-MB-453 cells measured by SEAP reporter gene assay; type: cell-based
Androgen receptor [18] = target: T1, Androgen receptor; assay: Antagonist activity at Androgen receptor (unknown origin) assessed as downregulation of AR
[19] = Oral bioavailability in dog; type: ADME, organism-based, Canis lupus familiaris; settings: in vivo
Androgen receptor [20] = target: T1, Androgen receptor; assay: Antagonist activity at Androgen receptor in human LNCaP cells assessed as inhibition of Binding Function 3 (BF3) of AR measured by enhanced green fluorescent protein transcriptional (eGFPT) assay; type: cell-based
[21] = target: T3, Androgen receptor (Homo sapiens) (UniProt P10275); assay: Displacement of [3H]DHT from Androgen receptor (unknown origin) relative to control; settings: filed as antagonist
T3 sequence (whole entry): T1 sequence (P10275 whole entry)

Androgen receptor [22] = target: T1, Androgen receptor; assay: Antagonist activity at Androgen receptor (unknown origin) in African green monkey COS-1 cells; type: cell-based
[23] = Half-life in plasma of rat; type: ADME
[24] = In vivo agonist activity at Androgen receptor in rat assessed as increase in levator ani muscle weight administered orally for 14 days; type: functional; settings: 336 h, route po, time 14 day
Androgen receptor [25] = target: T1, Androgen receptor; assay: Agonist activity at Androgen receptor in human 22Rv1 cells cotransfected with pARE-LUC measured by luciferase assay; type: cell-based
Androgen receptor [26] = target: Androgen receptor (Rattus norvegicus, UniProt P15207)
Description: Binding affinity to rat Androgen receptor ligand binding domain measured by competitive ligand binding assay

[27] = target: T3, Androgen receptor (Homo sapiens); assay: Antagonist activity at Androgen receptor in human LNCaP cells assessed as inhibition of PSA expression at 10 uM measured by ELISA assay; type: cell-based; design: scale not given: the % may be the effect or the level left
[28] = Inhibition of human LNCaP cell growth at 10 uM measured after 24 hrs by AlamarBlue staining method; type: functional

T2 sequence (P10275 whole entry T878A): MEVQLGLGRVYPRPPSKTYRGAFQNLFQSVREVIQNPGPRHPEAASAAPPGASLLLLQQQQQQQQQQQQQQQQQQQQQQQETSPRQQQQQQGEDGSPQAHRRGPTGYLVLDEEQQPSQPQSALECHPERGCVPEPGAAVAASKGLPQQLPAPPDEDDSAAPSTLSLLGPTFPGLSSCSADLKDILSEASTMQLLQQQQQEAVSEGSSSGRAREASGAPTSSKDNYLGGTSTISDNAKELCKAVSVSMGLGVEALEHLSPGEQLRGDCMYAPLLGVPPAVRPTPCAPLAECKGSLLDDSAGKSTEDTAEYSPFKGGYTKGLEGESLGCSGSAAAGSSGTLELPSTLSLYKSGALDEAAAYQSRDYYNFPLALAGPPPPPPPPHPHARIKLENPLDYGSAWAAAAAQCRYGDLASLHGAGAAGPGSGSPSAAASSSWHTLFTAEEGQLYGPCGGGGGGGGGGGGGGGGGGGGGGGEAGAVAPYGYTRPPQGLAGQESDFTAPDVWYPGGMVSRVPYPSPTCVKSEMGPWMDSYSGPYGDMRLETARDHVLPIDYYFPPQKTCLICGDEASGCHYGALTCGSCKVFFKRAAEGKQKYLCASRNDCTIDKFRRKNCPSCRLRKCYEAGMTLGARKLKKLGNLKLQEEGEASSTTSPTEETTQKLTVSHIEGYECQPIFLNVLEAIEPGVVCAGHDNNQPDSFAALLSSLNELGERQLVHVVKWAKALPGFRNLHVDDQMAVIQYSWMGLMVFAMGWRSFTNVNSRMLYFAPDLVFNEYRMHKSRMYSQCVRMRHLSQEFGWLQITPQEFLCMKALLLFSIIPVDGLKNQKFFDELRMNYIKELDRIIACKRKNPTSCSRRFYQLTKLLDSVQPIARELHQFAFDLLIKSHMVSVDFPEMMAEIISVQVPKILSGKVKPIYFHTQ
Sequence of Androgen receptor (Rattus norvegicus, UniProt P15207) (P15207 whole entry S389L): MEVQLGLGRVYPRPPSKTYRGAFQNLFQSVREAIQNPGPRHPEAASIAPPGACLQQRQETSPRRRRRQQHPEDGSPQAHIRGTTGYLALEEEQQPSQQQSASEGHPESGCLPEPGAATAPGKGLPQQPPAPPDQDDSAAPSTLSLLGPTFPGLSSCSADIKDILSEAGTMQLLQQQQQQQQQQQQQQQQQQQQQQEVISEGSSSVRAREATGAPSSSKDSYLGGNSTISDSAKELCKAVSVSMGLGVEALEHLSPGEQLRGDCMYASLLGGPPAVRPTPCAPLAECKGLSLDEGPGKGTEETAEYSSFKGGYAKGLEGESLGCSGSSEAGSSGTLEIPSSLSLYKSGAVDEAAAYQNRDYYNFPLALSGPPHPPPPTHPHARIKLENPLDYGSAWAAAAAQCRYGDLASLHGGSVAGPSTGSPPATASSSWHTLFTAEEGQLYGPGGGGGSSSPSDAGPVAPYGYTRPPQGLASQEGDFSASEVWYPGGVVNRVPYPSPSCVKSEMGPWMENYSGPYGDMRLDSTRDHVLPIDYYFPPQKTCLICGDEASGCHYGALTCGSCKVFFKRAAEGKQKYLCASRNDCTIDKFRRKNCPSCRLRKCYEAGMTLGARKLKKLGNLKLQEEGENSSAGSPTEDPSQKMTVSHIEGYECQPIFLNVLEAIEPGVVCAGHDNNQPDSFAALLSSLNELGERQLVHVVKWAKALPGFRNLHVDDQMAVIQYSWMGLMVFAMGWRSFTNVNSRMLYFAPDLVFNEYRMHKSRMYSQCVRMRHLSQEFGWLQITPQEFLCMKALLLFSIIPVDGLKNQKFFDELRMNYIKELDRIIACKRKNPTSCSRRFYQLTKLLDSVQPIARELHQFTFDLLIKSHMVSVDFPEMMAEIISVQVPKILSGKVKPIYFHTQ

Cc1nc(O[C@H]2C(C)(C)[C@H](NC(=O)c3cnc4ncccn34)C2(C)C)ccc1C#N
Activity (LNCaP [1]): >90%

CCS(=O)(=O)Nc1cccc(-c2cc(=O)n(-c3ccc(Cl)c(Cl)c3)nc2C)c1
IC50 (Androgen receptor [2]): 6260 nM

C[C@](O)(CCOc1ccc(F)cc1)C(=O)N1CCc2c(C#N)cccc21
IC50 (Androgen receptor [3]): 12.7 nM
EC50 (Androgen receptor [4]): 2.5 nM

NS(=O)(=O)c1cccc2cc(SCCOc3ccccc3)[nH]c12
IC50 (Androgen receptor [5]): 530 nM

CNC(=O)c1ccc([C@]2(O)CCN(c3ccc(C#N)c(Cl)c3)[C@H]2C)cn1
IC50 (LNCaP [6]): 290 nM
IC50 (Androgen receptor [7]): 830 nM
IC50 (Androgen receptor [8]): 1700 nM
IC50 (LNCaP [9]): 1700 nM

Cc1c(C#N)c(-c2ccc(C#N)cc2)c(C)n1-c1cnc(Cl)c(CO)c1
IC50 (Androgen receptor [10]): 25 nM
IC50 (Androgen receptor [11]): 100 nM
IC50 (Androgen receptor [7]): 37 nM
IC50 (Androgen receptor [12]): 110 nM
T/C [13]: 15%

C[C@@]1(C(=O)Nc2ccc(C#N)c(C(F)(F)F)c2)CC(C(F)(F)F)=NN1
Activity [14]: 90%
Activity [15]: 51%

CNC(=O)[C@]12C(=O)N(c3ccc(C#N)c(C(F)(F)F)c3)C(=O)[C@H]1[C@H]1C[C@H](F)[C@@H]2C1
Activity (Rattus norvegicus): 35%
Ki (Androgen receptor [16]): 8 nM
IC50 (Androgen receptor [17]): 91 nM

CC(=O)N1CCN(CCOc2ccc(C3CCN(C4=Nn5c(nnc5C(F)(F)F)CC4)CC3)cc2)CC1 [AZD3514]
IC50 (Androgen receptor [18]): > 1780 nM
bioavailability [19]: 75%

CC(C)C(NC(=O)c1cc2ccc(F)cc2[nH]1)c1ccco1 (stereo not given)
IC50 (Androgen receptor [20]): 430 nM

N#Cc1ccc(C2=NO[C@H]3CCCC[C@@H]23)cc1C(F)(F)F
Activity [21]: 99.2%
IC50 (Androgen receptor [22]): 27.5 nM

CC[C@H]1[C@@H]2[C@@H](O)CCN2C(=O)N1c1ccc(C#N)c(Cl)c1C
half-life [23]: 5.5 h
ED50 [24]: 0.09 mg/kg

CCCN(CC(F)(F)F)c1cc(Br)c(C#N)s1
IC50 (Androgen receptor [25]): 10 nM

C[C@](O)(Cn1ccc2cc(F)ccc21)C(=O)Nc1ccc(C#N)c(C(F)(F)F)c1
Ki (Androgen receptor [26]): > 10000 nM

COc1cc(/C=N/NC(=O)c2cc3c(ccc4ccccc43)o2)cc(OC)c1O
Activity [27]: 30%
inhibition at 10 µM [28]: 30%
